Measured values as given in patent US10858366B2 (priority 2016, dated 2020).

Key:
[1] = biological target: truncated Influenza A/victoria/75 PA(1-209) (Influenza A virus (strain A/Victoria/3/1975 H3N2), UniProt P31343); test: Endonuclease Inhibition Assay (PA FP Assay); format: binding; conditions: fluorescence polarization, fluorescein-labeled probe
Experimental: Endonuclease Inhibition Assay (PA FP Assay)
Compounds were dissolved and serially diluted in 100% DMSO then 0.5 μl was transferred to 384-well plates. 50 nM truncated Influenza A/victoria/75 PA(1-209) was prepared in assay buffer (20 mM Tris, pH=7.5, 10 mM MgCl2, 0.01% Tween 20, 100 mM NaCl and 1 mM DTT) and 20 ul was added to each well of assay plate with compounds, centrifuged for 1 min at 1000 rpm and incubated for 30 min at room temperature. 20 μl of 20 nM fluorescein-labeled probe [5-(4-(3-carboxy-3-oxopropanoyl)-4-(4-chlorobenzyl)piperidine-1-carbonyl)-2-(6-hydroxy-3-oxo-3H-xanthen-9-yl)benzoic acid] in assay buffer was then added, centrifuged for 1 min at 1000 rpm and incubated for 60 min at room temperature.
Fluorescence polarization was measured on Perkin Elmer Envision plate reader with excitation at 480 nm and emission at 535 nm and reported in millipolarization units (mP). IC50 values were determined relative to wells containing 125 uM of a compound known to bind to the active site of PA and uninhibited wells containing 1.25% DMSO.

[2] = biological target: RNP_CAL (PB2, PB1, PA, NP, influenza A Luciferase reporter in 293T cells) (Influenza A virus (strain swl A/California/04/2009 H1N1), UniProt C3W5S0); test: cell-based

SMILES	IC50 [1]	EC50 [2]
O=c1cnn2c(c1O)-c1nccn1C[C@@H]2[C@H](c1ccc(F)cc1)c1ccc(F)cc1Br [Example 39, (S)-6-((R)-(2-bromo-4-fluorophenyl)(4-fluorophenyl)methyl)-11-hydroxy-5,6-dihydro-10H-imidazo[2′,1′:3,4]pyrazino[1,2-b]pyridazin-10-one]	10 nM	33 nM
Cc1ccccc1[C@H](c1ccc(F)cc1)[C@H]1Cn2ccnc2-c2c(O)c(=O)cnn21 [Example 40, (S)-6-((S)-(4-fluorophenyl)(o-tolyl)methyl)-11-hydroxy-5,6-dihydro-10H-imidazo[2′,1′:3,4]pyrazino[1,2-b]pyridazin-10-one]	20 nM	32 nM
N#Cc1cccc([C@H](c2ccc(F)cc2)[C@H]2Cn3ccnc3-c3c(O)c(=O)cnn32)c1 [Example 43, 3-((S)-(4-fluorophenyl)((S)-11-hydroxy-10-oxo-5,6-dihydro-10H-imidazo[2′,1′:3,4]pyrazino[1,2-b]pyridazin-6-yl)methyl)benzonitrile]	20 nM	39 nM
N#Cc1cccc([C@H](c2cccc(F)c2)[C@H]2Cn3ccnc3-c3c(O)c(=O)cnn32)c1 [Example 46, 3-((R)-(3-fluorophenyl)((S)-11-hydroxy-10-oxo-5,6-dihydro-10H-imidazo[2′,1′:3,4]pyrazino[1,2-b]pyridazin-6-yl)methyl)benzonitrile]	50 nM	64 nM
O=c1ccn2c(c1O)-c1ncc(-c3cn[nH]c3)n1C[C@@H]2C(c1ccccc1)c1ccccc1 [Example 52, (S)-6-benzhydryl-11-hydroxy-3-(1H-pyrazol-4-yl)-5,6-dihydro-10H-imidazo[1,2-a]pyrido[2,1-c]pyrazin-10-one]	8 nM	8300 nM
O=c1ccn2c(c1O)-c1ncc(-c3ccccc3)n1C[C@@H]2C(c1ccccc1)c1ccccc1 [Example 53, (S)-6-benzhydryl-11-hydroxy-3-phenyl-5H-imidazo [1,2-a] pyrido[2,1-c]pyrazin-10(6H)-one]	60 nM	3000 nM
COCc1cnc2n1C[C@H](C(c1ccccc1)c1ccccc1)n1ccc(=O)c(O)c1-2 [Example 56, (S)-6-benzhydryl-11-hydroxy-3-(methoxymethyl)-5H-imidazo [1,2-a]pyrido[2,1-c]pyrazin-10(6H)-one]	100 nM	92 nM
O=c1ccn2c(c1O)-c1ncc(C(F)F)n1C[C@@H]2C(c1ccccc1)c1ccccc1 [Example 57, (S)-6-benzhydryl-3-(difluoromethyl)-11-hydroxy-5H-imidazo[1,2-a]pyrido[2,1-c]pyrazin-10(6H)-one]	40 nM	180 nM
CC1(C)N(C(c2ccccc2)c2ccccc2)n2ccc(=O)c(O)c2-c2nccn21 [Example 75, 6-benzhydryl-11-hydroxy-5,5-dimethyl-5,6-dihydro-10H-imidazo[1,2-d]pyrido[2,1-f][1,2,4]triazin-10-one]	100 nM	300 nM
CCC1N(C(c2ccccc2)c2ccccc2)n2ccc(=O)c(O)c2-c2nccn21 (centres unmarked) [Example 78, 6-benzhydryl-5-ethyl-11-hydroxy-5,6-dihydro-10H-imidazo[1,2-d]pyrido[2,1-f][1,2,4]triazin-10-one]	40 nM	180 nM
